# Measurements reported in PubChem BioAssay AID1919006 (Molecular Pharmacology Branch, DTP, NCI, 2023).
# Test system: 885512-296-R-J2-PDC complex spheroid growth, % test/control
# Assay: Anticancer human tumor 885512-296-R-J2-PDC patient-derived breast carcinoma cell line growth inhibition [AhR]
# Conditions: for IC50: curve of first compound; for viability, T/C: stronger effect = lower value
# Description: Multicellular complex tumor spheroid response to aryl hydrocarbon receptor antagonists in combination with a variety of drugs and investigational agents in selected tumor cell lines
# The current study was undertaken to assess response to aryl hydrocarbon receptor antagonists in combination with standard-of-care drugs and investigational agents in solid tumor complex spheroid models. Complex spheroids include a stromal component modeled by human endothelial cells (HUVEC) and fibroblasts modeled by human mesenchymal stem cells (MSCs). The concentration ranges selected for each drug and investigational agent were based upon clinically achievable concentrations if the clinical Cmax of the agent was known.
# Compounds. The drugs and investigational agents: BAY 2416964 (NSC825713), GNF351 (NSC835774), CH-223191 (NSC835775), CPI-455 (NSC825282), aza-TdCyd (NSC777586), decitabine (NSC127716), belinostat (NSC758774), entinostat (NSC756642), pevonedistat (NSC761192), tazemetostat (NSC777109), talazoparib (NSC765396), olaparib (NSC753686), selinexor (NSC780203), nedisertib (M3814, NSC802822), bortezomib (NSC756655), venetoclax (NSC766270), doxorubicin (NSC123127), elimusertib (BAY189344, NSC800525), ceralasertib (AZD6738, NSC777638), TAK-243 (NSC785004), alisertib (NSC759677), etoposide (NSC141540), topotecan (NSC609699), eribulin (NSC707389), gemcitabine (NSC613327), carboplatin (NSC241240), cisplatin (NSC119875), and SN-38 (NSC673596) were obtained from the National Cancer Institute (NCI) Developmental Therapeutics Program Chemical Repository (32). The FDA-approved anticancer drug set is available from the Developmental Therapeutics Program at https://dtp.cancer.gov/organization/dscb/obtaining/available plates.htm. […] The stock solutions were prepared in dimethyl sulfoxide (DMSO, Sigma-Aldrich, St. Louis, MO, cat. D2650), except for the platinum compounds which were prepared in saline (Quality Biological, Gaithersburg, MD, cat. 114-055-101), at 800-fold the tested concentration and stored at -70 degrees C prior to their use. All drugs and investigational agents were tested over a range starting from a high concentration at or near the clinical Cmax and decreasing in half-log increments. If the clinical Cmax for an agent had not been determined, the highest concentration tested was 10 microM (Table 1).
# Cell Culture. All cells were maintained in an incubator at 37 degrees C and 5% CO2 with 95% humidity. The PDC lines were cultured according to standard operating procedures established by the NCI PDMR (https://pdmr.cancer.gov). Briefly, all PDCs were thawed and cultured in Matrigel-coated flasks prepared with a working solution of 1X Ham's F-12 nutrient mix, without supplementation (Invitrogen, Waltham, MA, cat. 11765054), 100 U/mL penicillin-streptomycin (Invitrogen, cat. 15140122), and 2.5% Matrigel (Corning Inc., Corning, NY, cat. 354248) for the first three passages. All PDCs were cultured in complete DMEM/F-12 media containing advanced DMEM/F-12 (Invitrogen, cat. 12634028), 4.9% defined fetal bovine serum, heat inactivated (HyClone Laboratories Inc., Logan, UT, cat. SH30070.03HI), 389 ng/mL hydrocortisone (Sigma-Aldrich, cat. H4001), 9.7 ng/mL human EGF recombinant protein (Invitrogen, cat. PHG0313), 23.4 microg/mL adenine (Sigma-Aldrich, cat. A2786), 97.3 U/mL penicillin-streptomycin (Invitrogen, cat. 15140122), 1.9 mM L-glutamine (Invitrogen, cat. 25030081), and 9.7 microM Y-27632 dihydrochloride (Tocris Bioscience, Bristol, United Kingdom, cat. 1254). The PDCs were cultured in complete DMEM/F12 media without 10 microM Y-27632 dihydrochloride for at least two passages prior to the screen. The established cell lines NCI-H1341 and […] were cultured in DMEM/F-12, HEPES (Invitrogen, cat. 11330032), 5% defined fetal bovine serum (HyClone Laboratories Inc., cat. SH30070.03), ITS premix universal culture supplement [insulin (5 microg/mL), transferrin (5 microg/mL), and selenious acid (5 ng/mL)] […]
# [1] = second compound 0.1 µM, first compound 0.0316 µM
# [2] = second compound 0.1 µM, first compound 0.1 µM
# [3] = second compound 0.1 µM, first compound 0.316 µM
# [4] = second compound 0.1 µM, first compound 1 µM
# [5] = second compound 0.1 µM, first compound 3.16 µM
# [6] = second compound 0.1 µM, first compound 10 µM
# [7] = second compound 0.316 µM, first compound 0.0316 µM
# [8] = second compound 0.316 µM, first compound 0.1 µM
# [9] = second compound 0.316 µM, first compound 0.316 µM
# [10] = second compound 0.316 µM, first compound 1 µM
# [11] = second compound 0.316 µM, first compound 3.16 µM
# [12] = second compound 0.316 µM, first compound 10 µM
# [13] = second compound 1 µM, first compound 0.0316 µM
# [14] = second compound 1 µM, first compound 0.1 µM
# [15] = second compound 1 µM, first compound 0.316 µM
# [16] = second compound 1 µM, first compound 1 µM
# [17] = second compound 1 µM, first compound 3.16 µM
# [18] = second compound 1 µM, first compound 10 µM
# [19] = second compound 3.16 µM, first compound 0.0316 µM
# [20] = second compound 3.16 µM, first compound 0.1 µM
# [21] = second compound 3.16 µM, first compound 0.316 µM
# [22] = second compound 3.16 µM, first compound 1 µM
# [23] = second compound 3.16 µM, first compound 3.16 µM
# [24] = second compound 3.16 µM, first compound 10 µM
# [25] = second compound 10 µM, first compound 0.0316 µM
# [26] = second compound 10 µM, first compound 0.1 µM
# [27] = second compound 10 µM, first compound 0.316 µM
# [28] = second compound 10 µM, first compound 1 µM
# [29] = second compound 10 µM, first compound 3.16 µM
# [30] = second compound 10 µM, first compound 10 µM
# 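Note: spheroids exposed to compounds for seven days.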
smiles,measurement,setting,value
CC(C)CC(NC(=O)C(Cc1ccccc1)NC(=O)c1cnccn1)B(O)O (stereo not given) + CC(CO)NC(=O)c1cc(-c2ccc(Cl)cc2)nn(-c2cnn(C)c2)c1=O,IC50,second compound 0.1 µM,0.00522 µM
same,IC50,second compound 0.316 µM,0.00567 µM
same,IC50,second compound 1 µM,0.00545 µM
same,IC50,second compound 3.16 µM,0.00542 µM
same,IC50,second compound 10 µM,0.00575 µM
same,"viability, T/C","second compound 0.1 µM, first compound 0.000949 µM",97%
same,"viability, T/C","second compound 0.1 µM, first compound 0.003 µM",86.5%
same,"viability, T/C","second compound 0.1 µM, first compound 0.00949 µM",10.7%
same,"viability, T/C","second compound 0.1 µM, first compound 0.03 µM",0.69%
same,"viability, T/C","second compound 0.1 µM, first compound 0.0949 µM",0.12%
same,"viability, T/C","second compound 0.1 µM, first compound 0.3 µM",0.12%
same,"viability, T/C","second compound 0.316 µM, first compound 0.000949 µM",96.1%
same,"viability, T/C","second compound 0.316 µM, first compound 0.003 µM",99.3%
same,"viability, T/C","second compound 0.316 µM, first compound 0.00949 µM",11.2%
same,"viability, T/C","second compound 0.316 µM, first compound 0.03 µM",0.78%
same,"viability, T/C","second compound 0.316 µM, first compound 0.0949 µM",0.16%
same,"viability, T/C","second compound 0.316 µM, first compound 0.3 µM",0.08%
same,"viability, T/C","second compound 1 µM, first compound 0.000949 µM",98.4%
same,"viability, T/C","second compound 1 µM, first compound 0.003 µM",94%
same,"viability, T/C","second compound 1 µM, first compound 0.00949 µM",9.2%
same,"viability, T/C","second compound 1 µM, first compound 0.03 µM",0.72%
same,"viability, T/C","second compound 1 µM, first compound 0.0949 µM",0.26%
same,"viability, T/C","second compound 1 µM, first compound 0.3 µM",0.12%
same,"viability, T/C","second compound 3.16 µM, first compound 0.000949 µM",89.4%
same,"viability, T/C","second compound 3.16 µM, first compound 0.003 µM",91.6%
same,"viability, T/C","second compound 3.16 µM, first compound 0.00949 µM",11.7%
same,"viability, T/C","second compound 3.16 µM, first compound 0.03 µM",0.76%
same,"viability, T/C","second compound 3.16 µM, first compound 0.0949 µM",0.16%
same,"viability, T/C","second compound 3.16 µM, first compound 0.3 µM",0.1%
same,"viability, T/C","second compound 10 µM, first compound 0.000949 µM",91.6%
same,"viability, T/C","second compound 10 µM, first compound 0.003 µM",113%
same,"viability, T/C","second compound 10 µM, first compound 0.00949 µM",9.64%
same,"viability, T/C","second compound 10 µM, first compound 0.03 µM",0.68%
same,"viability, T/C","second compound 10 µM, first compound 0.0949 µM",0.18%
same,"viability, T/C","second compound 10 µM, first compound 0.3 µM",0.14%
Nc1ccccc1NC(=O)c1ccc(CNC(=O)OCc2cccnc2)cc1 + CC(CO)NC(=O)c1cc(-c2ccc(Cl)cc2)nn(-c2cnn(C)c2)c1=O,IC50,second compound 0.1 µM,0.696 µM
same,IC50,second compound 0.316 µM,0.62 µM
same,IC50,second compound 1 µM,0.704 µM
same,IC50,second compound 3.16 µM,0.59 µM
same,IC50,second compound 10 µM,0.452 µM
same,"viability, T/C",[1],91.9%
same,"viability, T/C",[2],76.4%
same,"viability, T/C",[3],61.9%
same,"viability, T/C",[4],42%
same,"viability, T/C",[5],31.8%
same,"viability, T/C",[6],13%
same,"viability, T/C",[7],85.1%
same,"viability, T/C",[8],70.3%
same,"viability, T/C",[9],62.2%
same,"viability, T/C",[10],43.4%
same,"viability, T/C",[11],24.6%
same,"viability, T/C",[12],11.6%
same,"viability, T/C",[13],92.8%
same,"viability, T/C",[14],80.2%
same,"viability, T/C",[15],58.8%
same,"viability, T/C",[16],44%
same,"viability, T/C",[17],32.6%
same,"viability, T/C",[18],11.6%
same,"viability, T/C",[19],85.4%
same,"viability, T/C",[20],78.6%
same,"viability, T/C",[21],59%
same,"viability, T/C",[22],36.8%
same,"viability, T/C",[23],31.4%
same,"viability, T/C",[24],9.96%
same,"viability, T/C",[25],82.6%
same,"viability, T/C",[26],74.2%
same,"viability, T/C",[27],55.5%
same,"viability, T/C",[28],34%
same,"viability, T/C",[29],24.1%
same,"viability, T/C",[30],6.25%
O=C(C=Cc1cccc(S(=O)(=O)Nc2ccccc2)c1)NO + CC(CO)NC(=O)c1cc(-c2ccc(Cl)cc2)nn(-c2cnn(C)c2)c1=O,IC50,second compound 0.1 µM,1.49 µM
same,IC50,second compound 0.316 µM,1.52 µM
same,IC50,second compound 1 µM,1.51 µM
same,IC50,second compound 3.16 µM,1.32 µM
same,IC50,second compound 10 µM,0.909 µM
same,"viability, T/C",[1],89.9%
same,"viability, T/C",[2],91.5%
same,"viability, T/C",[3],79.6%
same,"viability, T/C",[4],50.1%
same,"viability, T/C",[5],40.4%
same,"viability, T/C",[6],10.1%
same,"viability, T/C",[7],89.8%
same,"viability, T/C",[8],84.8%
same,"viability, T/C",[9],79.4%
same,"viability, T/C",[10],51%
same,"viability, T/C",[11],39.9%
same,"viability, T/C",[12],9.03%
same,"viability, T/C",[13],96%
same,"viability, T/C",[14],101%
same,"viability, T/C",[15],80.8%
same,"viability, T/C",[16],50.6%
same,"viability, T/C",[17],40.9%
same,"viability, T/C",[18],9.28%
same,"viability, T/C",[19],81.3%
same,"viability, T/C",[20],86.5%
same,"viability, T/C",[21],74.1%
same,"viability, T/C",[22],48%
same,"viability, T/C",[23],38.1%
same,"viability, T/C",[24],8.4%
same,"viability, T/C",[25],86.5%
same,"viability, T/C",[26],79.1%
same,"viability, T/C",[27],68.1%
same,"viability, T/C",[28],43.5%
same,"viability, T/C",[29],31.9%
same,"viability, T/C",[30],6.06%
